Tests used:
[1] = Antiviral activity against RSV A2 infected in human Hep2 cells assessed as protection against virus-induced cytopathic effect after 4 days by Cell-Titer Glo assay; format: functional, cell-based; settings: human respiratory syncytial virus, HEp-2, 96 h
[2] = target: DNA polymerase subunit gamma-1/gamma-2 (Homo sapiens) (UniProt P54098+Q9UHN1); assay: Inhibition of human mitochondrial DNA polymerase gamma large subunit/DNA polymerase gamma accessory subunit using 32P-D19/D36 as DNA primer/template assessed as single nucleotide incorporation rate at 100 uM after 5 to 90 mins by PAGE analysis relative to thymidine NTP; format: protein assay
[3] = Inhibition of RSV A2 RNA-dependent RNA polymerase expressed in human Hep2 cells using ATP, GTP, UTP, CTP and 1.5 uCi [alpha-32P] NTP as substrate assessed as reduction of total radiolabled transcript after 90 mins by agarose gel electrophoresis; parameters: species or system Human respiratory syncytial virus A2; settings: hep-2
[4] = Cytotoxicity against human MT4 cells assessed as cell viability after 5 days by Cell-Titer Glo assay; format: cell-based
[5] = target: DNA-directed RNA polymerase, mitochondrial (Homo sapiens) (UniProt O00411); assay: Inhibition of human mitochondrial RNA polymerase using 5'-32P-R12/D18 as RNA/DNA template assessed as single nucleotide incorporation rate at 500 uM after 0.17 to 30 mins by PAGE analysis
Sequence of DNA-directed RNA polymerase, mitochondrial (Homo sapiens) (O00411 whole entry): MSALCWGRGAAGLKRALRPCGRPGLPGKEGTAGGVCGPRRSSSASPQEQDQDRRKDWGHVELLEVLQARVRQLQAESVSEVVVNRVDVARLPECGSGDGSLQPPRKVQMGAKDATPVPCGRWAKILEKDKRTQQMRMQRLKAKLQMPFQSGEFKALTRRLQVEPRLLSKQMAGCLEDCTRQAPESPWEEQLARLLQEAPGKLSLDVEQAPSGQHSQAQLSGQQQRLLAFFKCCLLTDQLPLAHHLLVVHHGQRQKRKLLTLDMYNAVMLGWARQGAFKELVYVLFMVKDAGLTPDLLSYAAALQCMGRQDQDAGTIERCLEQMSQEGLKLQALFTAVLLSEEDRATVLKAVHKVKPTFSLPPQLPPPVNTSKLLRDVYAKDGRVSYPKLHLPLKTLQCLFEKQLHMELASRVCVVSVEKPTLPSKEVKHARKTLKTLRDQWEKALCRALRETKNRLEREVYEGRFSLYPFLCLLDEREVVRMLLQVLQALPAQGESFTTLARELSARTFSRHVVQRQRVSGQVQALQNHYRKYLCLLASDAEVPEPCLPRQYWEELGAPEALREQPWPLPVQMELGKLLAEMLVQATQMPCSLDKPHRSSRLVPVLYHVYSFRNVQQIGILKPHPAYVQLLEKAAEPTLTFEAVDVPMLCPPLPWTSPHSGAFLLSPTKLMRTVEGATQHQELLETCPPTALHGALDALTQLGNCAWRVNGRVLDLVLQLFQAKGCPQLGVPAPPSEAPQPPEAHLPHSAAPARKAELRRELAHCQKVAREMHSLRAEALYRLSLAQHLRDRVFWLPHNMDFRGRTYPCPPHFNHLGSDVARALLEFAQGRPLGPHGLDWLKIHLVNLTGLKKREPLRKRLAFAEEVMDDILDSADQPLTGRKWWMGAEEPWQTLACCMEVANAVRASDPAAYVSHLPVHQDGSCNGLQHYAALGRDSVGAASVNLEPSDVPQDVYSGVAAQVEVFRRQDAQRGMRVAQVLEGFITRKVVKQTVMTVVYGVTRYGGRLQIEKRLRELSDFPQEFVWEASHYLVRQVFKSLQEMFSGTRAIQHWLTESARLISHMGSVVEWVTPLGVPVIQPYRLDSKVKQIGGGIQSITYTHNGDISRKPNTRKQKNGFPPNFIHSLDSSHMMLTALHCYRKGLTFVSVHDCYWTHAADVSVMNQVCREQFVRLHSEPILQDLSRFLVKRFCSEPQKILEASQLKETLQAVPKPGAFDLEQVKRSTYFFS

Sequence of DNA polymerase subunit gamma-1/gamma-2 (Homo sapiens) (P54098 whole entry, looked up): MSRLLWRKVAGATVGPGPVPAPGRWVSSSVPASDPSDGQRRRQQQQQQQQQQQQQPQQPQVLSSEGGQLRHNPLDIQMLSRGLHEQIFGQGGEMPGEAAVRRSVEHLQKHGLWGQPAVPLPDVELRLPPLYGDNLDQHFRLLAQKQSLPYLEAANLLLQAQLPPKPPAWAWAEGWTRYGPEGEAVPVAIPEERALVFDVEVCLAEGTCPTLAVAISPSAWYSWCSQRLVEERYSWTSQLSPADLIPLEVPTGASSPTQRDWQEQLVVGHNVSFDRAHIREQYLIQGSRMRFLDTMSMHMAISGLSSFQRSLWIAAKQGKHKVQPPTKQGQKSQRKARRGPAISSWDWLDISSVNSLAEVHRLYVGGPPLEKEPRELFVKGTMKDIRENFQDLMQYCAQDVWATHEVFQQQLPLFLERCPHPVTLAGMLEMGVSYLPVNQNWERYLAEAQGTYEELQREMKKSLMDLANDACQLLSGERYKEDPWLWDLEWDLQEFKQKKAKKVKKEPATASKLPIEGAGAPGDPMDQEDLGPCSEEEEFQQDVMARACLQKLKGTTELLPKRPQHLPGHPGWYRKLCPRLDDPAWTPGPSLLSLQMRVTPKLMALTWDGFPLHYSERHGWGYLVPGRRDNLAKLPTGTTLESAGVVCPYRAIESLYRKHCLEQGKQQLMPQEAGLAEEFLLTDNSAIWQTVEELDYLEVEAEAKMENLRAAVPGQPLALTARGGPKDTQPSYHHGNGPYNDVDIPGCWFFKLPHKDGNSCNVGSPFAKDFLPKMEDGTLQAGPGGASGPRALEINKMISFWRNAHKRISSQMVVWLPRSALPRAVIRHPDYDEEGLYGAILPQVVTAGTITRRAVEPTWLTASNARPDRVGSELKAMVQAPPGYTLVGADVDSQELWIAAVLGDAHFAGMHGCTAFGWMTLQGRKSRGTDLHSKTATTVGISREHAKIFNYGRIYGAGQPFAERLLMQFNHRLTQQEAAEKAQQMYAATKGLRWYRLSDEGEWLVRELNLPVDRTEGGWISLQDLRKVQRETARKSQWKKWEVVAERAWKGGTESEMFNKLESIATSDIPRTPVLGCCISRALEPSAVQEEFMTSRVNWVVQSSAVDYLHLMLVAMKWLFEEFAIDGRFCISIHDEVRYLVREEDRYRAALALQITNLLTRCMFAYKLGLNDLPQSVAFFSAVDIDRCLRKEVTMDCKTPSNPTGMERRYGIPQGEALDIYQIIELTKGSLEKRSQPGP
Sequence of DNA polymerase subunit gamma-1/gamma-2 (Homo sapiens) (Q9UHN1 whole entry, looked up): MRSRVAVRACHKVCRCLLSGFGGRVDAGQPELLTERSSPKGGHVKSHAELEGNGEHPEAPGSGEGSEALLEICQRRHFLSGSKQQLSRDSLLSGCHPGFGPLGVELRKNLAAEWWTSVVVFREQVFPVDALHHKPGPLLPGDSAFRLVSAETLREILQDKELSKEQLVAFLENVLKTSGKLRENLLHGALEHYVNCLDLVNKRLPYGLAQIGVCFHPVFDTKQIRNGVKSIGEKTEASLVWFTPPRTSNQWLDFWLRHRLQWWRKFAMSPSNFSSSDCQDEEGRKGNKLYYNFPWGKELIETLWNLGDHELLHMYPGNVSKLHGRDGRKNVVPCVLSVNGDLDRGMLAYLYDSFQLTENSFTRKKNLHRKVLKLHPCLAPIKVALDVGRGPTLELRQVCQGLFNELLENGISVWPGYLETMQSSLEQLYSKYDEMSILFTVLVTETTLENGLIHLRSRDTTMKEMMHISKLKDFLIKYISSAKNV

Compound	EC50 [1] [µM]	inhibition [2] [%]	IC50 [3] [nM]	CC50 at 120 h [4] [µM]	inhibition [5] [%]
C=C[C@]1(CO)O[C@@H](n2ccc(N)nc2=O)[C@H](F)[C@@H]1O	> 50	4.9	600	> 57	1.2
[N-]=[N+]=N[C@]1(CO)O[C@@H](n2ccc(N)nc2=O)[C@H](F)[C@@H]1O	3.5	7	300	23	3
Nc1ncnn2c([C@@H]3O[C@H](CO)[C@@H](O)[C@H]3F)ccc12	> 100	2.5	600	26	22
C=C[C@]1(CO)O[C@@H](n2cnc3c(=O)[nH]c(N)nc32)[C@H](F)[C@@H]1O	17	1	12000	46	1
N#C[C@]1(CO)O[C@@H](c2ccc3c(N)ncnn23)[C@H](F)[C@@H]1O	2	< 0.1	86	> 114	< 0.1
C=C[C@]1(CO)O[C@@H](c2ccc3c(N)ncnn23)[C@H](F)[C@@H]1O	10	10	600	> 114	2.9
Nc1nc(O)c2ncn([C@@H]3O[C@H](CO)[C@@H](O)[C@H]3F)c2n1	> 200	34	6600	–	21
CC(C)C(=O)OC[C@@]1(N=[N+]=[N-])O[C@@H](n2ccc(N)nc2=O)[C@H](OC(=O)C(C)C)[C@@H]1OC(=O)C(C)C	–	–	–	–	112
N#C[C@]1(CO)O[C@@H](n2cnc3c(=O)[nH]c(N)nc32)[C@H](F)[C@@H]1O	10	3	2600	24	0
Nc1ncnc2c1ncn2[C@@H]1O[C@H](CO)[C@@H](O)[C@H]1F [2'-BETA-FLUORO-2',3'-DEOXYADENOSINE]	> 50	8	7700	–	24
CC[C@]1(CO)O[C@@H](c2ccc3c(N)ncnn23)[C@H](F)[C@@H]1O	41	5.7	500	> 114	0.1
CC[C@]1(CO)O[C@@H](n2ccc(N)nc2=O)[C@H](F)[C@@H]1O	8	6	600	> 57	0
O=c1ccn([C@@H]2O[C@H](CO)[C@@H](O)[C@H]2F)c(=O)[nH]1	> 100	11	3500	–	37
Nc1nc2c(ncn2[C@@H]2O[C@H](CO)[C@@H](O)[C@H]2F)c(=O)[nH]1	–	–	–	> 49	–
C#C[C@]1(CO)O[C@@H](n2cnc3c(=O)[nH]c(N)nc32)[C@H](F)[C@@H]1O	26	5	1800	39	18
Nc1ccn([C@@H]2O[C@@](CO)(CCl)[C@@H](O)[C@H]2F)c(=O)n1 [ALS-8112]	0.92	41	1000	21	0
Nc1ccn([C@@H]2O[C@H](CO)[C@@H](O)[C@H]2F)c(=O)n1	> 200	17	1800	3.8	20
O=c1[nH]c(=O)n([C@@H]2O[C@H](CO)[C@@H](O)[C@@H]2F)cc1I	–	99	–	–	–

Reference: ChEMBL document CHEMBL3425402, “Discovery of β-D-2'-deoxy-2'-α-fluoro-4'-α-cyano-5-aza-7,9-dideaza adenosine as a potent nucleoside inhibitor of respiratory syncytial virus with excellent selectivity over mitochondrial RNA and DNA polymerases” (Bioorg Med Chem Lett, 2015)
